Laboratory results as given in paper PMC6272548, “Synthesis and Antiplatelet Activity of Antithrombotic Thiourea Compounds: Biological and Structure-Activity Relationship Studies” (Molecules, 2015).
Like-named read-outs stand apart in the source and are kept apart here.

What was measured:
[1] = tested on: Salmonella typhimurium; test: Reverse mutagenesis to histidine prototrophy (Ames test), spot test; details: without metabolic activation; 10 µM, 100 µM and 500 µM
Experimental: This assay was performed as described by Maron and Ames, using the histidine Salmonella typhimurium auxotroph mutant strains TA97, TA98, TA100 and the […] TA102 (Table 5).

[2] = tested on: human platelets; test: Platelet aggregation of human citrated platelet-rich plasma induced by arachidonic acid (turbidimetric); format: cell-based; details: for inhibition at 100 µM: healthy human platelets, read-out: Inhibition of AA-induced platelet aggregation; for Antiplatelet activity (in words): AA-induced platelet aggregation
Experimental: The human blood samples were obtained from adult volunteers, who abstained from the use of drugs or other substances that could interfere with the experiment for at least 15 days prior. […] The platelet rich (PRP) and poor (PPP) plasma were prepared by differential centrifugation and platelet aggregation was monitored using the turbidimetric method described by Born and Cross with an aggregometer 4-Pack® (Helena Laboratories, Beaumount, TX, USA). Different concentrations of the synthetic derivatives and the vehicle (DMSO 1%) were pre-incubated for 2 min before addition of the agonists (500 μM arachidonic acid and 5 μg/mL collagen). The platelet aggregation tests were performed in triplicate and the data were statistically analyzed.

[3] = tested on: TXB2 production; test: Measurement of plasma TXB2 levels by EIA in platelet-rich plasma; format: cell-based; details: for inhibition at 100 µM: Homo sapiens, Platelet; for Platelet Inhibition of TXB2 (%): 100 µM, human platelet-rich plasma
Experimental: Thromboxane B2 (TXB2), a stable TXA2 metabolite, is widely used as a prognostic risk marker of platelet activation in cardiovascular disease, which is closely related to COX-1 and Thromboxane Synthetase activity. Thus, the plasma levels of this metabolite were measured using an enzyme immunoassay (EIA) as described in the Experimental Section.
Plasma samples containing 100 μM of each thiourea with antiplatelet activity were used to determine the concentrations of thromboxane B2, an index of in vitro COX-1 activity. Briefly, 10 μL of arachidonic acid (500 μM) were added to platelet-rich plasma samples containing each active derivative (100 μM) under stir conditions. After five minutes the suspensions were mixed with 3 μL Indomethacin (10 mM) stop-solution. By sonication for 15 min, platelets were disrupted, and the resulting homogenates were centrifuged at 2000 g for 10 min to allow complete release of TXB2. Plasma levels of TXB2 were measured in duplicate by competitive immunoassay using commercially available kits from EIA Cayman (TXB2 EIA Kit, Cayman Chemical Co, Ann Arbor, MI, USA) according to the manufacturer’s instructions. A threshold of 25.75 ng/mL was defined as control plasma levels of TXB2 after platelet disrupture.

[4] = tested on: PGE2 production; test: Measurement of plasma PGE2 levels by EIA in platelet-rich plasma; format: cell-based; details: human platelet-rich plasma
Experimental: The stable direct metabolite of PGE2, 13,14-dihydro-15-keto-Prostaglandin E2, is a known marker of the COX-1 activity. By the measurement of total levels of this PGE2 metabolite in human platelet-rich plasma, we evaluated the feasibility of antiplatelet N,N'-disubstituted thioureas to inhibit COX-1 activity in healthy platelets (Table 2).
Plasma samples containing 100 μM of each thiourea with antiplatelet activity were used to determine the concentrations of […], an index of in vitro COX-1 activity. Briefly, ozagrel (3 μL, 100 μM) were added to stop TXS activity and the aggregation were triggered with 10 μL of arachidonic acid (500 μM) in PRP samples containing each active derivative (100 μM) under stir conditions. After five minutes the suspensions were mixed with indomethacin (3 μL, 10 mM) stop-solution. By sonication for 1 min, platelets were disrupted and purification step were performed according to the manufacturer’s instructions (Cayman Chemical Co.). Plasma levels of PGE2 were measured in duplicate by competitive immunoassay using commercially available kits for EIA (PGE2 EIA Kit, Cayman Chemical Co.) according to the manufacturer’s instructions. A threshold of 25.75 ng/mL was defined as control plasma levels of PGE2 after platelet disrupture.

[5] = tested on: erythrocytes; test: Hemolysis assay (erythrocyte lysis); format: cell-based, human; details: 3 h incubation; derivatives and ASA at 100 μM, TRITON at 1%
Experimental: Healthy erythrocytes were washed three times with PBS (pH 7.4) by centrifugation and suspended in the same buffer. All derivatives were incubated with the erythrocyte suspension for 3 h at 37 °C. The release of hemoglobin was determined by monitoring the optical density of the supernatant at 540 nm. The experiments were performed in triplicate and complete hemolysis (positive control) was determined using 1% Triton X-100. Hemolysis less than 10% indicated good hemocompatibility and non-toxicity of the molecules tested.

[6] = tested on: COX-1; design: method as in PMID 22263894; details: read-out: IC50 of non-anionic COX-1 inhibitors; cited from earlier work
[7] = read-out: IC50, concentration that caused 50% inhibition of platelet aggregation, arachidonic acid-induced (500 μM), human platelet-rich plasma
[8] = Homo sapiens, Platelet, read-out: IC50, concentration that caused 50% inhibition of platelet aggregation, arachidonic acid-induced (500 μM), human platelet-rich plasma

Compound | Ames Test S. typhimurium TA97 [1] | Ames Test S. typhimurium TA98 [1] | Ames Test S. typhimurium TA100 [1] | Ames Test S. typhimurium TA102 [1] | inhibition at 100 µM ([2]; Platelet) [%] | IC50 [2, 7] [µM] | inhibition at 100 µM [3] [%] | inhibition at 100 µM [4] [%] | melting point [°C] | IC50 [2, 8] [µM] | Platelet Inhibition of TXB2 (%) [3] [%] | Antiplatelet activity (in words) [2] | Hemolysis [5] [%] | IC50 [6] [µM]
CCN(CC)C(=S)NCc1ccccc1 [3i, N-Benzyl-N',N'-diethylthiourea] | - | - | - | - | 96 to 98 | 86.2 | 74.7 ± 5.5 | 21.1 ± 5 |  |  |  |  |  | 
O=C(O)/C=C/c1ccc(Cn2ccnc2)cc1 [Ozagrel, reference compound] |  |  |  |  |  |  | 98 ± 2.8 |  |  |  |  |  |  | 
S=C(NCc1ccccc1)Nc1ccc2c(c1)OCO2 [3j, N-Benzyl-N'-(3,4-methylenedioxyphenyl)thiourea] | - | - | - | - |  |  |  |  | 114 to 116 | 155 ± 3.6 |  |  |  | 
CCN(CC)C(S)=NCCc1ccccc1 [3m, N,N-diethyl-N'-(2-phenethyl)thiourea] | - | - | - | - | 96 to 98 | 34.5 ± 0.9 | 91 | 28.2 ± 5.9 | 72 to 74 | 34.5 | 91.2 ± 0.0 |  |  | 
COc1cc(NC(=S)Nc2ccccc2)cc(OC)c1OC [3e, N-Phenyl-N'-(3,4,5-trimethoxyphenyl)thiourea] | - | - | - | - |  |  |  |  | 164 to 166 | 251 ± 3.5 |  | lack antiplatelet activity |  | 
COc1cc(NC(=S)Nc2ccc3c(c2)OCO3)cc(OC)c1OC [3q, N-(3,4-Methylenedioxyphenyl)-N'-(3,4,5-trimethoxyphenyl)thiourea] | - | - | - | - |  |  |  |  | 142 to 144 | 290 ± 21.9 |  | lack antiplatelet activity |  | 
OCCNC(=S)Nc1ccccc1 [3c, N-(2-Hydroxyethyl)-N'-phenylthiourea] | - | - | - | - |  |  |  |  | 139 to 141 | 170 ± 17.3 |  |  |  | 
S=C(Nc1ccccc1)NC1CCCCC1 [3b, N-Cyclohexyl-N'-phenylthiourea] | - | - | - | - |  |  |  |  | 149 to 151 | 153 ± 4.5 |  |  |  | 
CC(C)NC(=S)NCCc1ccccc1 [3k, N-Isopropyl-N'-(2-phenethyl)thiourea] | - | - | - | - |  |  |  |  | 126 to 128 | 188 ± 10.7 |  |  |  | 
CC(C)NC(=S)NCc1ccccc1 [3h, N-Benzyl-N'-isopropylthiourea] | - | - | - | - |  |  |  |  | 121 to 123 | 214 ± 10.2 |  |  |  | 
CCN(CC)C(=S)Nc1ccccc1 [3d, N-N-Diethyl-N'-phenylthiourea] | - | - | - | - | 96 to 98 |  | 74.2 ± 10.2 | 25.6 ± 5.9 |  | 29.1 |  |  |  | 
S=C(Nc1ccccc1)Nc1cccc2ccccc12 [3g, N-α-Naphthyl-N'-phenylthiourea] | - | - | - | - |  | 142 ± 9 |  |  |  |  |  |  |  | 
COc1ccc2c(c1)c(CC(=O)O)c(C)n2C(=O)c1ccc(Cl)cc1 [Indomethacin, reference compound] |  |  |  |  |  |  | 99.8 | 28 ± 1.6 |  |  |  |  |  | 
CCCCNC(=S)NCCc1ccccc1 [3l, N-Butyl-N'-(2-phenethyl)thiourea] | - | - | - | - |  |  |  |  | 61 to 63 | 153 ± 15 |  |  |  | 
CNC(=S)Nc1ccccc1 [3a, N-Methyl-N'-phenylthiourea] | - | - | - | - |  |  |  |  |  | 308 ± 10.4 |  |  |  | 
Triton X-100 |  |  |  |  |  |  |  |  |  |  |  |  | 100 | 
Nc1ccc(NC(=O)c2ccc(C(F)(F)F)cc2)nc1 [TFAP] |  |  |  |  |  |  |  |  |  |  |  |  |  | 0.8
S=C(NCCc1ccccc1)Nc1cccc2ccccc12 [3o, N-(α-Naphthyl)-N'-(2-phenethyl)thiourea] | - | - | - | - |  |  |  |  | 155 to 157 | 157 ± 19.9 |  |  |  | 
S=C(NCCc1ccccc1)Nc1ccc2c(c1)OCO2 [3p, N-(3,4-Methylenedioxyphenyl)-N'-(2-phenethyl)thiourea] | - | - | - | - | 96 to 98 | 84.5 | 88 | 7.9 ± 7.9 | 126 to 128 | 84.6 | 88.1 ± 5.5 |  |  | 
S=C(Nc1ccccc1)Nc1ccc2c(c1)OCO2 [3f, N-3,4-Methylenedioxyphenyl-N'-phenylthiourea] | - | - | - | - |  |  |  |  | 140 to 142 | 322 ± 8.9 |  | lack antiplatelet activity |  | 
S=C(NCCc1ccccc1)NC1CCCCC1 [3n, N-Cyclohexyl-N'-(2-phenethyl)thiourea] | - | - | - | - |  |  |  |  | 109 to 111 | 277 ± 42.9 |  |  |  | 
